According to patent publication US9060970B2, “Bridge-helix cap: target and method for inhibition of bacterial RNA polymerase” (priority 2011, dated 2015):
Entries after “also recorded” stand apart in the source; their conditions may differ. Starred links: 1 amine or outer side, 2 acyl side, 3 side chain; linkers in the order of their positions; H or OH if unused. Positions of bridges follow the written chain, without caps; N, C: chain ends. Non-standard residues stand in square brackets, D forms with d. Residues, ends and D or L forms follow the SMILES beside them. *: point of attachment. X2 = C[C@H](Oc1ccc([C@H](N[*:1])C(=O)[*:2])cc1)[C@@]1(/C=C/C(=O)[*:3])CO1; X1 = CC(C)[C@H](O)[C@H](C)C(=O)*; aIle = CC[C@@H](C)[C@H](N)C(=O)O; dNMeF = CN[C@H](Cc1ccccc1)C(=O)O; aThr = C[C@H](O)[C@H](N)C(=O)O

Key:
[1] = test system: DNA synthesis in E. coli D21f2tolC; assay: DNA synthesis in vivo ([14C]-thymidine incorporation, macromolecular synthesis assay); type: cell-based, Escherichia coli; settings: Sal at two times MIC; 5, 10, 15 min after addition
Protocol: Sal Inhibits RNA Synthesis in vivo. To determine whether Sal inhibits RNAP in vivo, effects of Sal on RNA synthesis in vivo were assayed, and, as a control, effects of Sal on DNA synthesis in vivo were assayed. Sal was added to cultures of E. coli D21f2tolC growing in media containing either a radioactively labeled RNA-synthesis precursor ([^14C]-uracil) or a radioactively labeled DNA synthesis precursor ([^14C]-thymidine); aliquots were removed and mixed with trichloroacetic acid (TCA) 0, 5, 10, and 15 min thereafter to lyse cells and precipitate nucleic acids; TCA-precipitated nucleic acids were collected by vacuum filtration; and radioactivity in TCA-precipitated nucleic acids was quantified (FIG. 2A). […] The effect was specific; addition of Sal to bacterial cultures had no effect on DNA synthesis (FIG. 2B, right panel). It is concluded that Sal inhibits RNA synthesis in vivo, and it is inferred that Sal inhibits RNAP in vivo.
Measurement of Nucleic Acid Synthesis in vivo. Macromolecular synthesis assays were performed essentially as in reference 5. […] Radioactivity was quantified using a Typhoon Variable Mode Imager and ImageQuant v5 (Molecular Dynamics, Inc.).

[2] = test system: E. coli D21f2tolC; assay: Spontaneous resistance frequency by plating on LB agar containing inhibitor; type: cell-based, Escherichia coli
From the text: Sal-Resistant Mutants Map to RNAP-Subunit Genes. To determine whether Sal kills bacteria by inhibiting RNAP, spontaneous Sal-resistant mutants were isolated, and genes for RNAP subunits in Sal-resistant mutants were PCR-amplified and sequenced (FIG. 3A). Spontaneous Sal-resistant mutants were isolated by plating high-density cultures of E. coli D21f2tolC (˜3×10^9 cells per plate) on agar containing Sal and identifying rare resistant colonies (FIG. 3B). For each Sal-resistant mutant, genomic DNA was prepared, and the genes for the largest RNAP subunit and the second-largest RNAP subunit—rpoC encoding RNAP β′ subunit and rpoB encoding RNAP β subunit were PCR-amplified and sequenced (FIG. 3C).
Co-Administration of Sal and Rifampin Reduces Spontaneous Resistance to Undetectable Levels.
Co-Administration of Sal and CBR703 Reduces Spontaneous Resistance to Undetectable Levels.
Isolation of Sal-Resistant Mutants: Spontaneous Sal-Resistant Mutants. E. coli D21f2tolC (6) was cultured to saturation in 5 ml LB broth (7) at 37° C., cultures were centrifuged, and cell pellets (˜3×10^9 cells) were re-suspended in 50 μl LB broth and plated on LB agar (7) containing 1.2 μg/ml Sal (a concentration four times the minimal concentration required to prevent growth of wild-type cells under these conditions), and incubated 24-48 h at 37° C. Sal-resistant mutants were identified by the ability to form colonies on this medium and were confirmed by re-streaking on the same medium.

[3] = test system: Derivatives of E. coli D21f2tolC containing rifamycin-resistant rpoB mutations; assay: Broth microdilution cross-resistance of rifamycin-resistant mutants to Sal; type: cell-based, Escherichia coli
[4] = test system: human RNAPs; settings: human RNAP I, RNAP II, RNAP III; reference 4; cited from earlier work

## CC[C@@H](C)[C@@H]1NC(=O)[C@H](NC(=O)[C@@H](C)[C@@H](O)C(C)C)[C@H](C)OC(=O)[C@H]2COC(=O)CNC(=O)/C=C/[C@@]3(CO3)[C@H](C)Oc3ccc(cc3)[C@H](NC1=O)C(=O)N(C)[C@H](Cc1ccccc1)C(=O)N[C@@H]([C@H](C)O)C(=O)N2 [Sal, salinamide A] (X1-[dT][aIle][X2][dNMeF][aThr][dS]; ester 1-C; linker 3-6 via G)
[1]
  effect on DNA synthesis in vivo: no effect
[2]; LB agar, each compound at 4×MIC, colonies counted after 24 h at 37° C.
  spontaneous resistance frequency: 4×10^−9
[2]; ~3×10^9 cells per plate, LB agar with 1.2 μg/ml Sal, 24-48 h at 37° C.
  frequency of spontaneous mutation to Sal-resistance: ~4 × 10^−9
[3]; rifampin-resistant mutant rpoB (RNAP β subunit) 516 Asp→Val
  cross-resistance level (MIC/MICwild-type): 1
[3]; rifampin-resistant mutant rpoB (RNAP β subunit) 526 His→Asp
  cross-resistance level (MIC/MICwild-type): 1
[3]; rifampin-resistant mutant rpoB (RNAP β subunit) 526 His→Tyr
  cross-resistance level (MIC/MICwild-type): 1
[3]; rifampin-resistant mutant rpoB (RNAP β subunit) 531 Ser→Leu
  cross-resistance level (MIC/MICwild-type): 1
[3]; β Asp516→Val, His526→Asp, His526→Tyr, Ser531→Leu mutants (Table 5)
  cross-resistance of rifamycin-resistant mutants (in words): not cross-resistant; also recorded: no cross-resistance
[4]
  inhibition of human RNAPs: does not inhibit
